Laboratory results as given in patent publication US20150216794A1, “METHODS OF TREATING PAIN ASSOCIATED WITH OSTEOARTHRITIS OF A JOINT WITH A TOPICAL FORMULATION OF A SPIRO-OXINDOLE COMPOUND” (IVAX International GmbH, priority 2014, published 2015).
Values joined by “and” are separate entries in the source; they are usually repeats but may differ in a detail not shown here. Equal values may be shown once.

Key:
[1] = previous topical clinical studies (PHN and EM) overall; settings: human, in vivo
Description: Although not previously studied in patients with osteoarthritis, a topical formulation of the spiro-oxindole compound of the invention has been tested in clinical studies and was well tolerated by patients with postherpetic neuralgia (PHN) and erythromelalgia.
In general, the maximal concentrations of the spiro-oxindole compound following topical application are determined under “maximal use conditions,” taking into consideration such factors as ointment strength, application volume, application surface area, and frequency and duration of dosing.
Nevertheless, the exposure level anticipated in this study is expected to be higher than that observed in any single patient population administered a therapeutic dose a topical pharmaceutical composition of the invention. This study is therefore intended to help in the selection of a topical dose and regimen of a topical pharmaceutical composition of the invention.

[2] = domestic pig joint penetration: concentration in synovial membrane; format: in vivo
Description: (§1) This study was conducted to evaluate the joint penetration, systemic plasma exposure and tissue distribution of the spiro-oxindole compound in domestic pigs following topical administration of a pharmaceutical composition utilized in the methods of the invention. Fifteen female pigs were used in this study with three pigs in each group. Beginning on Day 1, a pharmaceutical composition of the invention was topically applied to the left radiocarpal joint (carpus) and tibiotarsal joint (hock) twice daily (bid) for 17 days (34 applications) for Groups 1-4 and once daily (qd) for 17 days (17 applications) for Group 5. Pre-dose blood samples (prior to morning dosing) was collected on Days 2, 7, 10, 14 and 17. A full pharmacokinetic sampling was performed on Day 17 (post am dosing) at the following time points: 1, 2, 4, 8 and 12 hr. On the day of necropsy, Day 18, blood was collected prior to euthanasia, each pig was humanely euthanized and dorsal skin and muscle, liver, kidney, heart, lung, brain, intestine, fat, ovaries, urinary bladder, sciatic nerve, and skin, muscle, synovial membrane, and synovial fluid from all 4 joints (2 treated, left carpus and hock, and 2 untreated, right carpus and hock) was collected.
Doses were calculated by measuring the joint circumference and joint width (to include ˜2 cm above and below the joint) to calculate the total surface area for each individual dose. Group 1 received a 2% pharmaceutical composition of the invention and the dose volume for Group 1 was calculated using the total surface area and the designated dose volume of 3 μL/cm^2. The total dose volume was then converted from μL to mL to estimate the dose weight in grams, based on the composition density of 1 g/cm^3. Following is an example (not actual measurements) of calculating the dose:
For Groups 2-5, the dose volume was calculated using the total surface area and the designated dose volume of 3 μL/cm^2 (Groups 2, 3 and 5) or 1 μL/cm^2 (Group 4). The total dose volume was then converted from μL to mL to estimate the dose length in centimeters of a ribbon of the pharmaceutical composition when squeezed from a glaminate tube onto a metal metric ruler, based on the composition length-weight relationship of 1 cm of pharmaceutical composition being equal to 0.5 g of the composition (diameter of the tube opening was 0.87 cm).
The test compositions were topically applied an equal distance above and below the center of the joint, i.e., inter-carpal joint space (carpus) and inter-tarsal joint space (hock) of each animal to allow for complete coverage of the joint, including approximately 2 cm above and below the edges of the joint. The test composition was applied to the entire circumference of the designated area. All animals were dosed using the same distance above and below each joint center for consistency.
(§2) The dose volume (μL/cm^2) for the test pharmaceutical compositions was 3.0 μL/cm^2 for Groups 1, 2, 3 and 5 and 1.0 μL/cm^2 for Group 4.
The following tissue samples were collected after euthanasia: • Dorsal skin and muscle (from the mid-back) • Liver—Left Medial Lobe • Kidney—Right • Heart • Lung—Right diaphragmatic lobe • Brain—Right cerebral hemisphere • Intestine—mid-jejunum • Duodenum (10-15 cm length) from all 6 animals in Groups 1 and 2 • Fat • Ovary—Right • Urinary bladder • Sciatic nerve from both legs • Skin, muscle underlying site of administration and synovial membrane of all 4 joints (treated left carpus and hock and untreated right carpus and hock)

[3] = test system: complete Freund's adjuvant (CFA) model of inflammatory pain; assay: CFA model of inflammatory pain; format: in vivo, rat; settings: topical, dose-response; model not restated (follows CFA paragraph)
[4] = domestic pig joint penetration study: concentration in plasma; format: in vivo; settings: for concentration in plasma, individual animals: 3.0 μL/cm^2 bid
Description: as §1, §2
Approximately 2 mL of whole blood was collected prior to the morning dose administration on Days 2, 7, 10, 14 and 17. A full pharmacokinetic profile sampling was performed on Day 17 after the morning dose administration at the following time points: 1, 2, 4, 8 and 12 hr. On the day of necropsy, Day 18, blood was collected prior to euthanasia.

[5] = domestic pig, topical administration to a joint

- highest observed individual plasma concentration [1]: 14.5 ng/mL
- concentration in synovial membrane tissue, individual animals ([2]; G1 (#1-#3): 2% composition, 3.0 μL/cm^2 bid 17 days, Untreated right carpus): 70.83 ng/g and 84.97 ng/g and 44.47 ng/g
- concentration in synovial membrane tissue, individual animals ([2]; G1 (#1-#3): 2% composition, 3.0 μL/cm^2 bid 17 days, Untreated right hock): 97.22 ng/g and 33.16 ng/g and 41.19 ng/g
- concentration in synovial membrane tissue, individual animals ([2]; G2 (#4-#6): 4% composition, 3.0 μL/cm^2 bid 17 days, Untreated right hock): 92.75 ng/g and 69.80 ng/g and 98.28 ng/g
- concentration in synovial membrane tissue, individual animals ([2]; G4 (#10-#12): 8% composition, 1.0 μL/cm^2 bid 17 days, Untreated right hock): 26.20 ng/g and 0.00 ng/g and 45.29 ng/g
- concentration in synovial membrane tissue, individual animals ([2]; G5 (#13-#15): 8% composition, 3.0 μL/cm^2 qd 17 days, Untreated right carpus): 11.61 ng/g and 25.25 ng/g and 79.58 ng/g
- concentration in synovial membrane tissue, individual animals ([2]; G5 (#13-#15): 8% composition, 3.0 μL/cm^2 qd 17 days, Untreated right hock): 18.69 ng/g and 37.98 ng/g and 21.70 ng/g
- concentration in synovial membrane tissue of treated joint (in words) [2, 5]: micromolar concentrations
- concentration in plasma, individual animals ([4]; G1 (#1-#3): 2% composition, Day 2 Before dosing): 0.34 ng/mL
- concentration in plasma, individual animals ([4]; G1 (#1-#3): 2% composition, Day 7 Before dosing): 0.97 ng/mL
- concentration in plasma, individual animals ([4]; G1 (#1-#3): 2% composition, Day 10 Before dosing): 1.54 ng/mL
- concentration in plasma, individual animals ([4]; G1 (#1-#3): 2% composition, Day 14 Before dosing): 1.10 ng/mL
- concentration in plasma, individual animals ([4]; G1 (#1-#3): 2% composition, Day 17 1 hour after dosing): 1.21 ng/mL
- concentration in plasma, individual animals ([4]; G1 (#1-#3): 2% composition, Day 17 2 hour after dosing): 1.07 ng/mL
- concentration in plasma, individual animals ([4]; G1 (#1-#3): 2% composition, Day 17 4 hour after dosing): 1.04 ng/mL
- concentration in plasma, individual animals ([4]; G1 (#1-#3): 2% composition, Day 17 8 hour after dosing): 1.30 ng/mL
- concentration in plasma, individual animals ([4]; G1 (#1-#3): 2% composition, Day 17 12 hour after dosing): 11.38 ng/mL
- concentration in plasma, individual animals ([4]; G1 (#1-#3): 2% composition, Day 17 Before dosing): 2.70 ng/mL
- concentration in plasma, individual animals ([4]; G1 (#1-#3): 2% composition, Day 18): 1.60 ng/mL
- concentration in plasma, individual animals ([4]; G2 (#4-#6): 4% composition, Day 2 Before dosing): 0.84 ng/mL and 0.86 ng/mL
- concentration in plasma, individual animals ([4]; G2 (#4-#6): 4% composition, Day 7 Before dosing): 1.73 ng/mL
- concentration in plasma, individual animals ([4]; G2 (#4-#6): 4% composition, Day 10 Before dosing): 1.79 ng/mL
- concentration in plasma, individual animals ([4]; G2 (#4-#6): 4% composition, Day 14 Before dosing): 2.47 ng/mL
- concentration in plasma, individual animals ([4]; G2 (#4-#6): 4% composition, Day 17 1 hour after dosing): 2.47 ng/mL
- concentration in plasma, individual animals ([4]; G2 (#4-#6): 4% composition, Day 17 2 hour after dosing): 3.47 ng/mL
- concentration in plasma, individual animals ([4]; G2 (#4-#6): 4% composition, Day 17 4 hour after dosing): 2.72 ng/mL
- concentration in plasma, individual animals ([4]; G2 (#4-#6): 4% composition, Day 17 8 hour after dosing): 1.94 ng/mL
- concentration in plasma, individual animals ([4]; G2 (#4-#6): 4% composition, Day 17 12 hour after dosing): 12.17 ng/mL and 15.72 ng/mL
- concentration in plasma, individual animals ([4]; G2 (#4-#6): 4% composition, Day 17 Before dosing): 3.25 ng/mL
- concentration in plasma, individual animals ([4]; G2 (#4-#6): 4% composition, Day 18): 5.41 ng/mL and 2.83 ng/mL
- plasma concentration / systemic exposure (in words) [4, 5]: nanomolar
SMILES: O=C1N(Cc2ccc(C(F)(F)F)o2)c2ccccc2[C@]12COc1cc3c(cc12)OCO3 [spiro-oxindole compound, (S)-1′-{[5-(trifluoromethyl)furan-2-yl]methyl}spiro[furo[2,3-f][1,3]benzodioxole-7,3′-indol]-2′(1′H)one]
- concentration in synovial membrane tissue, individual animals ([2]; G1 (#1-#3): 2% composition, 3.0 μL/cm^2 bid 17 days, Treated left carpus): 126.88 ng/g and 56.86 ng/g and 105.89 ng/g
- concentration in synovial membrane tissue, individual animals ([2]; G1 (#1-#3): 2% composition, 3.0 μL/cm^2 bid 17 days, Treated left hock): 152.13 ng/g and 38.86 ng/g and 54.04 ng/g
- concentration in synovial membrane tissue, individual animals ([2]; G2 (#4-#6): 4% composition, 3.0 μL/cm^2 bid 17 days, Treated left carpus): 72.14 ng/g and 269.82 ng/g and 183.72 ng/g
- concentration in synovial membrane tissue, individual animals ([2]; G2 (#4-#6): 4% composition, 3.0 μL/cm^2 bid 17 days, Treated left hock): 132.05 ng/g and 95.93 ng/g and 131.87 ng/g
- concentration in synovial membrane tissue, individual animals ([2]; G2 (#4-#6): 4% composition, 3.0 μL/cm^2 bid 17 days, Untreated right carpus): 114.15 ng/g and 100.42 ng/g and 129.30 ng/g
- concentration in synovial membrane tissue, individual animals ([2]; G3 (#7-#9): 8% composition, 3.0 μL/cm^2 bid 17 days, Treated left carpus): 708.62 ng/g and 737.86 ng/g and 137.46 ng/g
- concentration in synovial membrane tissue, individual animals ([2]; G3 (#7-#9): 8% composition, 3.0 μL/cm^2 bid 17 days, Treated left hock): 252.46 ng/g and 576.83 ng/g and 1917.93 ng/g
- concentration in synovial membrane tissue, individual animals ([2]; G3 (#7-#9): 8% composition, 3.0 μL/cm^2 bid 17 days, Untreated right carpus): 54.19 ng/g and 185.83 ng/g and 130.63 ng/g
- concentration in synovial membrane tissue, individual animals ([2]; G3 (#7-#9): 8% composition, 3.0 μL/cm^2 bid 17 days, Untreated right hock): 82.74 ng/g and 737.82 ng/g and 167.55 ng/g
- concentration in synovial membrane tissue, individual animals ([2]; G4 (#10-#12): 8% composition, 1.0 μL/cm^2 bid 17 days, Treated left carpus): 49.99 ng/g and 59.22 ng/g and 159.68 ng/g
- concentration in synovial membrane tissue, individual animals ([2]; G4 (#10-#12): 8% composition, 1.0 μL/cm^2 bid 17 days, Treated left hock): 291.56 ng/g and 38.32 ng/g and 3171.10 ng/g
- concentration in synovial membrane tissue, individual animals ([2]; G4 (#10-#12): 8% composition, 1.0 μL/cm^2 bid 17 days, Untreated right carpus): 34.85 ng/g and 1772.86 ng/g and 46.92 ng/g
- concentration in synovial membrane tissue, individual animals ([2]; G5 (#13-#15): 8% composition, 3.0 μL/cm^2 qd 17 days, Treated left carpus): 702.22 ng/g and 150.00 ng/g and 35.31 ng/g
- concentration in synovial membrane tissue, individual animals ([2]; G5 (#13-#15): 8% composition, 3.0 μL/cm^2 qd 17 days, Treated left hock): 31.44 ng/g and 100.00 ng/g and 55.90 ng/g
- dose with greatest effect (highest dose tested) [3]: 8 % (w/w)
- minimum effective dose [3]: 2 % (w/w)
